Data from patent publication US20250011365A1, “ECHINOCANDIN-BASED DRUG, AND PREPARATION METHOD THEREFOR AND USE THEREOF” (Shenzhen Sungening Biological Co., Ltd, priority 2023, published 2025).
Numbered stars: 1 amine (or outer) side, 2 acyl side, 3 side chain; on linkers, the order of the positions; unused ones are H or OH. Bridge positions count the residues as written; N and C are the ends. Square brackets hold non-standard residues; d marks the D form. Peptide text beside a SMILES is read from it. * marks the point of attachment. Orn(4R-OH,5R-OCH2CH2NMe3+) = C[N+](C)(C)CCO[C@@H](N[*:3])[C@H](O)C[C@H](N[*:1])C(=O)[*:2]; pTerphenylCO(4''-OnC5H11) = CCCCCOc1ccc(-c2ccc(-c3ccc(C(=O)*)cc3)cc2)cc1; hTyr(3S-OH,4S-OH) = N[C@H](C(=O)O)[C@H](O)[C@@H](O)c1ccc(O)cc1; X4 = CCCCCOc1c(F)cc(C#Cc2ccc3cc(C(=O)*)ccc3c2)cc1F; Pro(3S-OH,4S-Me) = C[C@H]1CN[C@H](C(=O)O)[C@H]1O; X3 = CCCCCOc1ccc(C#Cc2ccc3cc(C(=O)*)ccc3c2)cc1F; Hyp = O=C(O)[C@@H]1C[C@@H](O)CN1

Experiments:
C. glabrata ATCC 15126 = assay: MIC assay, Candida standard strain (CLSI M27-A3); type: cell-based; settings: Nakaseomyces glabratus, ATCC15126, 24 h, 35° C.
Description: (§1) After gradient dilution of test compounds, an MIC assay was performed on a Candida standard strain, and an MEC assay was performed on an Aspergillus standard strain. […] A cryopreserved strain was passaged at least 2 times. A single colony was picked and resuspended in a physiological saline or sterile water tube, and the tube was subjected to vortex shaking. The Candida suspension was adjusted to 0.5 McF (1×10^6-5×10^6 CFU/mL) at a wavelength of 530 nm by using a spectrophotometer. After being diluted 50 times with physiological saline, the Candida suspension was diluted 20 times with 1×RPMI 1640 broth (1×10^3-5×10^3 CFU/mL). 10 μL of the diluted Candida suspension was coated on an SDA plate for colony counting, with a range of about 10-50 single colonies. After a prepared drug sensitive plate was completely dissolved at room temperature, the Candida suspension was added to the 96-well plate by using a multi-channel pipettor at 100 μL/well. At this time, the concentration of Candida in each well should be 0.5×10^3-2.5×10^3 CFU/mL. A yeast-type fungus assay plate was placed in an incubator, and incubated for 24 h at 35° C. and 85% humidity, and then the MIC values were read. For echinocandin-based drugs, Aspergillus was incubated for 21-26 h at 28° C., and then the MEC results were read. Yeast-type fungi: A 96-well plate was attached with a disposable parafilm, shaken for uniformly mixing, and observed with naked eyes by using a plate reader microscope. […] Pictures were taken and saved by using an automated plate reader.

C. krusei ATCC 6258 = assay: MIC assay, Candida standard strain (CLSI M27-A3); type: cell-based; settings: Pichia kudriavzevii, ATCC6258; C. krusei ATCC 6258 (quality-control strain); 24 h, 35° C.
Description: as §1

[1] = test system: C. parapsilosis ATCC 22019; assay: MIC assay, Candida standard strain (CLSI M27-A3); type: cell-based; settings: Lodderomyces parapsilosis, ATCC22019; C. parapsilosis ATCC 22019 (quality-control strain); 24 h, 35° C.
Description: as §1

C. tropicalis ATCC 750 = assay: MIC assay, Candida standard strain (CLSI M27-A3); type: cell-based; settings: ATCC750, 24 h, 35° C.
Description: as §1

[2] = test system: Candida albicans ATCC 10231; assay: MIC assay, Candida standard strain (CLSI M27-A3); type: cell-based; settings: ATCC10231, 24 h, 35° C., >50% growth inhibition
Description: as §1

[3] = test system: Candida albicans ATCC 14053; assay: MIC assay, Candida standard strain (CLSI M27-A3); type: cell-based; settings: ATCC14053, 24 h, 35° C.
Description: as §1

[4] = test system: Candida albicans ATCC 18804; assay: MIC assay, Candida standard strain (CLSI M27-A3); type: cell-based; settings: ATCC18804, 24 h, 35° C.
Description: as §1

[5] = test system: Candida albicans ATCC 64124; assay: MIC assay, Candida standard strain (CLSI M27-A3); type: cell-based; settings: ATCC64124, 24 h, 35° C.
Description: as §1

[6] = test system: Candida albicans ATCC 76485; assay: MIC assay, Candida standard strain (CLSI M27-A3); type: cell-based; settings: ATCC76485, 24 h, 35° C.
Description: as §1

[7] = test system: Candida albicans ATCC 90028; assay: MIC assay, Candida standard strain (CLSI M27-A3); type: cell-based; settings: ATCC90028, 24 h, 35° C., >50% growth inhibition
Description: as §1

[8] = test system: Candida albicans ATCC 90029; assay: MIC assay, Candida standard strain (CLSI M27-A3); type: cell-based; settings: ATCC90029, 24 h, 35° C.
Description: as §1

[9] = test system: Candida albicans ATCC MYA-1023; assay: MIC assay, Candida standard strain (CLSI M27-A3); type: cell-based; settings: 24 h, 35° C.
Description: as §1

[10] = test system: Candida albicans ATCC MYA-2876; assay: MIC assay, Candida standard strain (CLSI M27-A3); type: cell-based; settings: 24 h, 35° C.
Description: as §1

[11] = test system: Candida albicans ATCC MYA-427; assay: MIC assay, Candida standard strain (CLSI M27-A3); type: cell-based; settings: 24 h, 35° C.
Description: as §1

[12] = test system: Candida albicans ATCC MYA-4788; assay: MIC assay, Candida standard strain (CLSI M27-A3); type: cell-based; settings: 24 h, 35° C.
Description: as §1

[13] = test system: Candida albicans ATCC MYA-574; assay: MIC assay, Candida standard strain (CLSI M27-A3); type: cell-based; settings: 24 h, 35° C.
Description: as §1

[14] = test system: Candida albicans CICC 1943; assay: MIC assay, Candida standard strain (CLSI M27-A3); type: cell-based; settings: CICC1943, 24 h, 35° C.
Description: as §1

[15] = test system: Candida albicans CMCC 98001; assay: MIC assay, Candida standard strain (CLSI M27-A3); type: cell-based; settings: CMCC98001, 24 h, 35° C.
Description: as §1

[16] = test system: Aspergillus fumigatus ATCC 204305; assay: MEC assay, Aspergillus standard strain (CLSI M38-A2); type: cell-based; settings: 21-26 h, 28° C.
Description: After gradient dilution of test compounds, an MIC assay was performed on a Candida standard strain, and an MEC assay was performed on an Aspergillus standard strain.
The colonies on the plate were covered with 0.85% physiological saline (1 mL) or sterile water (polysorbate 20 was added to a final concentration of 0.1%-0.01%). […] The resuspension of spore hyphae was transferred to a sterile test tube, and left to stand for 3-5 min to precipitate heavier particles. The homogeneous suspension on the upper layer was transferred to a new sterile test tube, and the tube was capped closely, and subjected to vortex shaking for 15 s (note: the suspension can produce an aerosol when the cap is reopened). The concentration of the suspension was adjusted to an OD value of 0.09-0.13 at 530 nm by using a spectrophotometer. […] Within 2 h after dilution, 100 μL of the diluted suspension was added to each well in a 96-well plate (the concentration of spores in the final drug sensitive plate should be 0.4×10^4-5×10^4 CFU/mL).
In order to accurately determine MEC value, vortex oscillation should not be allowed before reading the plate.

[17] = test system: Pichia guilliermondii ATCC 6260; assay: MIC assay, yeast-type fungi (CLSI M27-A3); type: cell-based; settings: Meyerozyma guilliermondii, ATCC6260, 24 h, 35° C.
Description: as §1

[18] = test system: Cryptococcus neoformans ATCC 208821; assay: MIC assay, yeast-type fungi (CLSI M27-A3); type: cell-based; settings: ATCC208821, 24 h, 35° C.
[19] = Study on pharmacokinetic properties in rats after intravenous injection; settings: SD, rat, in vivo, 5 mg/kg

Compound: CCCCCOc1ccc(C#Cc2ccc3cc(C(=O)N[C@H]4C[C@@H](O)[C@@H](OCC[N+](C)(C)C)NC(=O)[C@@H]5[C@@H](O)[C@@H](C)CN5C(=O)[C@H]([C@@H](C)O)NC(=O)[C@H]([C@H](O)[C@@H](O)c5ccc(O)cc5)NC(=O)[C@@H]5C[C@@H](O)CN5C(=O)[C@H]([C@@H](C)O)NC4=O)ccc3c2)cc1F [Example 10] (X3-[Orn(4R-OH,5R-OCH2CH2NMe3+)]T[Hyp][hTyr(3S-OH,4S-OH)]T[Pro(3S-OH,4S-Me)]; lactam 1-C)
- MIC (C. glabrata ATCC 15126): 0.06 µg/mL
- MIC (C. krusei ATCC 6258): 0.06 µg/mL
- MIC [1]: 0.5 µg/mL
- MIC (C. tropicalis ATCC 750): ≤ 0.015 µg/mL
- MIC [2]: 0.03 µg/mL
- MIC [3]: ≤ 0.015 µg/mL
- MIC [4]: ≤ 0.015 µg/mL
- MIC [5]: ≤ 0.015 µg/mL
- MIC [6]: ≤ 0.015 µg/mL
- MIC [7]: ≤ 0.015 µg/mL
- MIC [8]: ≤ 0.015 µg/mL
- MIC [9]: ≤ 0.015 µg/mL
- MIC [10]: ≤ 0.015 µg/mL
- MIC [11]: 0.03 µg/mL
- MIC [12]: ≤ 0.015 µg/mL
- MIC [13]: ≤ 0.015 µg/mL
- MIC [14]: 0.03 µg/mL
- MIC [15]: ≤ 0.015 µg/mL
- MEC [16]: ≤0.015 µg/mL
- MIC [17]: 0.25 µg/mL
- MIC [18]: 8 µg/mL

Compound: CCCCCOc1c(F)cc(C#Cc2ccc3cc(C(=O)N[C@H]4C[C@@H](O)[C@@H](OCC[N+](C)(C)C)NC(=O)[C@@H]5[C@@H](O)[C@@H](C)CN5C(=O)[C@H]([C@@H](C)O)NC(=O)[C@H]([C@H](O)[C@@H](O)c5ccc(O)cc5)NC(=O)[C@@H]5C[C@@H](O)CN5C(=O)[C@H]([C@@H](C)O)NC4=O)ccc3c2)cc1F [Example 14] (X4-[Orn(4R-OH,5R-OCH2CH2NMe3+)]T[Hyp][hTyr(3S-OH,4S-OH)]T[Pro(3S-OH,4S-Me)]; lactam 1-C)
- MIC (C. glabrata ATCC 15126): 0.06 µg/mL
- MIC (C. krusei ATCC 6258): 0.06 µg/mL
- MIC [1]: 0.25 µg/mL
- MIC (C. tropicalis ATCC 750): ≤ 0.015 µg/mL
- MIC [2]: 0.03 µg/mL
- MIC [3]: ≤ 0.015 µg/mL
- MIC [4]: ≤ 0.015 µg/mL
- MIC [5]: ≤ 0.015 µg/mL
- MIC [6]: ≤ 0.015 µg/mL
- MIC [7]: ≤ 0.015 µg/mL
- MIC [8]: ≤ 0.015 µg/mL
- MIC [9]: ≤ 0.015 µg/mL
- MIC [10]: ≤ 0.015 µg/mL
- MIC [11]: 0.03 µg/mL
- MIC [12]: ≤ 0.015 µg/mL
- MIC [13]: ≤ 0.015 µg/mL
- MIC [14]: 0.03 µg/mL
- MIC [15]: ≤ 0.015 µg/mL
- MEC [16]: ≤0.015 µg/mL
- MIC [17]: 0.25 µg/mL
- MIC [18]: 8 µg/mL

Compound: CCCCCOc1ccc(-c2ccc(-c3ccc(C(=O)N[C@H]4C[C@@H](O)[C@@H](OCC[N+](C)(C)C)NC(=O)[C@@H]5[C@@H](O)[C@@H](C)CN5C(=O)[C@H]([C@@H](C)O)NC(=O)[C@H]([C@H](O)[C@@H](O)c5ccc(O)cc5)NC(=O)[C@@H]5C[C@@H](O)CN5C(=O)[C@H]([C@@H](C)O)NC4=O)cc3)cc2)cc1 [Rezafungin, rezafungin, reference compound] ({pTerphenylCO(4''-OnC5H11)}-[Orn(4R-OH,5R-OCH2CH2NMe3+)]T[Hyp][hTyr(3S-OH,4S-OH)]T[Pro(3S-OH,4S-Me)]; lactam 1-C)
- MIC (C. glabrata ATCC 15126): 0.06 µg/mL
- MIC (C. krusei ATCC 6258): 0.03 µg/mL
- MIC [1]: 0.5 µg/mL
- MIC (C. tropicalis ATCC 750): ≤ 0.015 µg/mL
- MIC [2]: ≤ 0.015 µg/mL
- MIC [3]: ≤ 0.015 µg/mL
- MIC [4]: ≤ 0.015 µg/mL
- MIC [5]: ≤ 0.015 µg/mL
- MIC [6]: ≤ 0.015 µg/mL
- MIC [7]: ≤ 0.015 µg/mL
- MIC [8]: ≤ 0.015 µg/mL
- MIC [9]: ≤ 0.015 µg/mL
- MIC [10]: ≤ 0.015 µg/mL
- MIC [11]: ≤ 0.015 µg/mL
- MIC [12]: ≤ 0.015 µg/mL
- MIC [13]: ≤ 0.015 µg/mL
- MIC [14]: ≤ 0.015 µg/mL
- MIC [15]: ≤ 0.015 µg/mL
- MEC [16]: ≤0.015 µg/mL
- MIC [17]: 0.25 µg/mL
- MIC [18]: 16 µg/mL
- AUC(0-inf) [19]: 104000 ng·h/mL
- AUC(0-t) [19]: 89000 ng·h/mL
- Cmax [19]: 4750 ng/mL
- MRT last [19]: 20.2 h
- Vd [19]: 1.9 L/kg
- clearance [19]: 0.8 mL/min/kg
- half-life [19]: 27.5 h
